The values below come from patent publication US20260151358A1, “METHODS OF TREATING, AMELIORATING, AND/OR PREVENTING STRESS-RELATED DISORDER” (Yale University, priority 2022, published 2026).

Entries after “also recorded” stand apart in the source; their conditions may differ.

For one test, the system named is dlPFC function. The note with it: published data, Li et al. 1994; cited from earlier work.
Another test has as its system dlPFC Delay cells. As to the kind of experiment: Single unit recording with iontophoresis of dlPFC Delay cells in monkeys performing the ODR working memory task. The note with it: for PFC neuronal firing (Delay cell firing): FIGS. 9A-9B, monkeys performing a working memory task; for delay-related firing for nonpreferred directions / delay-related firing of dlPFC Delay cells for the neurons' preferred direction / d′ measure of spatial tuning: iontophoresis, vs control, ODR task; for effect on the S-Bay (LTCC agonist)-induced reduction of Delay cell firing: pretreatment. The test is classed as in vivo, rhesus macaques. The text has this:
The physiological contributions of LTCC and β1-AR signaling were examined at the cellular level in rhesus macaques performing the oculomotor delayed response (ODR) spatial working memory task (FIG. 4A) to determine how they influence the neuronal firing needed for working memory and higher cognition. Recordings were made from the caudal principal sulcus (FIG. 4B) using an iontophoretic electrode (FIG. 4C) that allows minute ejection of charged compounds onto the neuron being recorded. The dlPFC contains “Delay cells” that are able to fire across the length of the delay period while the subject is remembering a location (FIG. 4D); this persistent firing is spatially tuned for the neuron's preferred direction, thus representing visual space in working memory. The effects of β1-AR-Cav1.2 signaling on dlPFC “Delay cell” firing were tested using single unit recordings coupled with iontophoresis in adult and aged rhesus monkeys performing the ODR task using repeated measures analyses. Aged monkeys have naturally-occurring calcium dysregulation, and thus are particularly useful for examining agents that reduce calcium signaling. As there are no compounds selective for Cav1.2, these experiments used agents targeting all LTCCs (i.e. Cav1.2 and Cav1.3 in dlPFC).

The next test deals with rhesus monkeys. As to the kind of experiment: Stress-induced (FG7142) working memory deficits, spatial delayed response task, systemic administration. Format: in vivo. The settings on record: for stress-induced working memory (cognitive) deficits: pretreatment, FG7142-treated animals, delayed response task; for effect of the selected dose alone on working memory performance: without stressor; for stress-induced cognitive deficits: monkeys. The text has this: The final experiments examined whether systemic administration of compounds that block β1-AR or LTCCs prevent stress-induced working memory deficits in rhesus monkeys (n=6), as predicted by the physiological data. This experiment used the LTCC blocker, nimodipine, which normalizes dlPFC working memory in human subjects carrying the CACNA1C allele that increases channel expression. The current experiments tested the effects of β1-AR or LTCC blockade on stress-induced working memory deficits in adult monkeys performing the spatial delayed response task in a Wisconsin General Test Apparatus. The anxiogenic inverse benzodiazepine agonist, FG7142, was used as a pharmacological stressor, as it produces a classic stress response including cortisol release in humans and monkeys, yet allows precise dosing to produce a mild response that impairs accuracy without impeding motivation for testing for food rewards. […]; post-hoc comparisons: vehicle+vehicle vs. vehicle+stress, p=0.001; […]; post-hoc comparisons: vehicle+vehicle vs. vehicle+stress, p=0.0009; vehicle+stress vs. nimodipine+stress, p=0.0006).

The next test deals with test animals. Briefly: Working memory (cognition) after β1-AR or β2-AR blockade (FIG. 11). Format: in vivo.
Test [1] concerns the target β3-adrenergic receptor subtype (β3-AR) (Homo sapiens, UniProt P13945). The settings on record: cited from earlier work.

Chain of β3-adrenergic receptor subtype (β3-AR) (P13945 whole entry): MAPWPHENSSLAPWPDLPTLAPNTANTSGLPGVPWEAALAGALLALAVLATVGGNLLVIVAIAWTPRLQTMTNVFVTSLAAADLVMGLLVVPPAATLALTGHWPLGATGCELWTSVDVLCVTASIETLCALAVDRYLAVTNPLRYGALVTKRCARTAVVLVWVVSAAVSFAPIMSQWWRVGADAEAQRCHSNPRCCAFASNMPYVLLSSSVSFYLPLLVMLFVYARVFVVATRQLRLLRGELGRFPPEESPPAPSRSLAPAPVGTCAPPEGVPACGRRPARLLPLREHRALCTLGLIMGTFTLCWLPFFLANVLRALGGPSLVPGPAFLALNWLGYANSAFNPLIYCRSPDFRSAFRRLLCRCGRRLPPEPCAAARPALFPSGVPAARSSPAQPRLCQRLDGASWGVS

Regarding `CC(C)NCC(O)COc1cccc2ccccc12` (racemic) [propranolol, (RS)-1-(1-methylethylamino)-3-(1-naphthyloxy)propan-2-ol], in the test on dlPFC function, the “effect on dlPFC function” value is on record as “little effect”.

Regarding `O=C(NCCNCC(O)COc1ccc(O)cc1)N1CCOCC1` (racemic) [xamoterol, (RS)—N-(2-{[2-hydroxy-3-(4-hydroxyphenoxy)propyl]amino}ethyl)morpholine-4-carboxamide], in the test on dlPFC Delay cells, the “PFC neuronal firing (Delay cell firing)” value is reported as “reduces PFC neuronal firing”, the “delay-related firing for nonpreferred directions” value is “not for nonpreferred directions”, the “delay-related firing of dlPFC Delay cells for the neurons' preferred direction” value is “reduced delay-related firing” and the “d′ measure of spatial tuning” value was “significant reduction”.

As to `CC[C@H](NC(C)C)[C@H](O)c1ccc(O)c2[nH]c(=O)ccc12` (relative stereo) [procaterol, (±)-(1R,2S)-rel-8-hydroxy-5-[1-hydroxy-2-(isopropylamino)butyl]-quinolin-2 (1H)-one], the “PFC neuronal firing (Delay cell firing)” value with dlPFC Delay cells is “increases delay cell firing”.

With `COC(=O)C1=C(C)NC(C)=C([N+](=O)[O-])[C@H]1c1ccccc1C(F)(F)F` [(S)-(−)-Bay-K 8644, (−)-methyl 2,6-dimethyl-5-nitro-4 (S)-[2-(trifluoromethyl)phenyl]-1,4-dihydropyridine-3-carboxylate], in the test with dlPFC Delay cells, the “delay-related firing of dlPFC Delay cells for the neurons' preferred direction” value is recorded as “reduced delay-related firing” and the “d′ measure of spatial tuning” value is recorded as “decreased”.

Consider `CNC(=O)c1cc2c(cn1)[nH]c1ccccc12` [FG7142], for which the “working memory performance compared to vehicle+vehicle control” value with rhesus monkeys (vehicle pretreatment + pharmacological stressor, n=6) is reported as “significantly impaired performance”.

For `Cc1ccc(OCC(O)C(C)NC(C)C)c2c1CCC2` (centres unmarked) [IC1118551, 3-(isopropylamino)-1-[(7-methyl-4-indanyl)oxy]butan-2-ol], the “cognition (working memory)” value in the test on test animals (0.1 mg/kg, FIG. 11, n=1) is “impaired cognition”.

In the case of `c1ccc2c(c1)CCC[C@H]2Nc1nc2ccccc2[nH]1` [NS8593, N-[(1R)-1,2,3,4-tetrahydro-1-naphthalenyl]-1H-benzimidazol-2-amine], in the test on dlPFC Delay cells, the “delay-related firing for nonpreferred directions” value is recorded as “smaller increase”, the “delay-related firing of dlPFC Delay cells for the neurons' preferred direction” value is given as “significantly increased delay firing”, the “d′ measure of spatial tuning” value was “significant increase” and the “effect on the S-Bay (LTCC agonist)-induced reduction of Delay cell firing” value is reported as “blocked”.

In the case of `CCN(c1ccccc1)c1cc(NC)[n+](C)c(C)n1` [ZD7288, N-ethyl-1,6-dihydro-1,2-dimethyl-6-(methylimino)-N-phenyl-4-pyrimidinamine], the “effect on the S-Bay (LTCC agonist)-induced reduction of Delay cell firing” value in the test on dlPFC Delay cells is “blocked”.

Turning to `CC(C)NCC(O)COc1ccc(CCOCC2CC2)cc1` (centres unmarked) [betaxolol, 1-{4-[2-(cyclopropylmethoxy)ethyl]phenoxy}-3-(propan-2-ylamino)propan-2-ol], in the test with dlPFC Delay cells, the “delay-related firing of dlPFC Delay cells for the neurons' preferred direction” value was “enhanced delay-related firing” and the “d′ measure of spatial tuning” value is “increased”. Moreover, in the test on rhesus monkeys, the “stress-induced working memory (cognitive) deficits” value (“stress-induced working memory” for short) is “prevented working memory deficits; also recorded: blocked stress-induced cognitive deficits” and the “effect of the selected dose alone on working memory performance” value is given as “no effect on their own”. In addition, in test [1], the “pKD value for β3-AR” value is reported as 5.97±0.08.

On to `OC(CNCC(O)C1CCc2cc(F)ccc2O1)C1CCc2cc(F)ccc2O1` (centres unmarked) [nebivolol, 1-(6-fluoro-3,4-dihydro-2H-chromen-2-yl)-2-[[2-(6-fluoro-3,4-dihydro-2H-chromen-2-yl)-2-hydroxyethyl]amino]ethanol], for which the stress-induced cognitive deficits entry in the test on rhesus monkeys (0.01 mg/kg, FIG. 10B) is given as “blocked stress-induced cognitive deficits”; in the test with rhesus monkeys (0.1 mg/kg, FIG. 10A), “blocked stress-induced cognitive deficits”. Besides, in the test on rhesus monkeys, the “stress-induced working memory” value is on record as “prevented stress-induced cognitive deficits”. Besides, the “cognition (working memory)” value with test animals (1.0 mg/kg, FIG. 11) was “improved cognition”.

Take `COCCOC(=O)C1=C(C)NC(C)=C(C(=O)OC(C)C)C1c1cccc([N+](=O)[O-])c1` (centres unmarked) [nimodipine, 3-(2-methoxyethyl) 5-propan-2-yl 2,6-dimethyl-4-(3-nitrophenyl)-1,4-dihydropyridine-3,5-dicarboxylate]: in the test on rhesus monkeys, the “stress-induced working memory” value is recorded as “prevented working memory deficits” and the “effect of the selected dose alone on working memory performance” value was “no effect on their own”.
